Data on 35 compounds can be found in PubChem BioAssay AID2305 (GlaxoSmithKline (GSK), 2010).

The test system of the test is P. falciparum 3D7 growth, pLDH absorbance. Nature of the test: blood-stage malaria parasite growth potency – strain 3D7, dose response (AID 2305).
`COc1ccc2nc3cc(Cl)ccc3c(NCCCCN)c2c1` showed an IC50 of 730 nM. Regarding `N#CC(c1ccc(Cl)cc1)c1ccc2c(C(F)(F)F)cc(C(F)(F)F)nc2n1` (stereo not given), the IC50 is 1010 nM. The IC50 values of the last two compounds are within 1.5-fold of each other. Regarding `Cc1ccccc1C1CCN(C2CCC(NC(=O)c3ccc(-c4cccc(C(F)(F)F)c4)o3)CC2)CC1` (stereo not given), the IC50 is 350 nM. As to `CCCC(CNCc1cccc(I)c1)CNc1cc(=O)c2ccccc2[nH]1` (stereo not given), the IC50 was determined as 470 nM. Next, `COc1ccc2nc3cc(Cl)ccc3c(NCCN(C)C)c2c1`: 190 nM; `O=C(NCCCN1CCN(c2cccc(Cl)c2)CC1)c1ccc(-c2nc3cc(Cl)c(Cl)cc3[nH]2)cc1`: 700 nM; `Cn1cnc2c(SCc3ccc(OCc4ccccc4)cc3)ncnc21`: 560 nM.

`CC(=NNC(=S)NCc1ccco1)c1ccccn1`: the IC50 was found to be 250 nM. Against the preceding compound, the IC50 is about 2.2-fold lower. `Cc1cc(C)n2nc(C(=O)Nc3cc(C(F)(F)F)ccc3N3CCOCC3)nc2n1` had an IC50 of 120 nM. The same measure for `COc1cc(-c2cnc(N)c(-c3nc4ccccc4[nH]3)c2)cc(OC)c1OC`: 190 nM; for `CCC(C)NC(=O)Nc1cccc(-c2cccc(-c3nc4c(C)cccc4[nH]3)c2)c1` (stereo not given): 810 nM; for `O=S(=O)(NC1CCN(c2ccnc3ccccc23)C1)c1ccc(OC(F)(F)F)cc1` (stereo not given): 1080 nM. Next, `Cc1cc(-c2c[nH]c3ncc(-c4cccc5ncccc45)cc23)ccc1C(=O)O`: 760 nM. The same measure for `O=C(Nc1cccc(Cl)c1N1CCOCC1)C(Cl)(Cl)Cl`: 980 nM. For the compound `FC(F)(F)c1ccc2c(NCCCNc3ccnc4cc(C(F)(F)F)ccc34)ccnc2c1`, the IC50 was 30 nM. This IC50 lies about 33-fold lower than the previous one. Next, `CC1(C)N=C(N)N=C(N)N1OCC1COc2ccccc2O1` (stereo not given): 30 nM. The same measure for `CC(=O)Nc1ccc(CN(Cc2ccc(F)cc2)Cc2cccc(Oc3ccccc3)c2)cc1`: 940 nM; for `CCCCSc1nc2c(c(=O)n1Cc1ccco1)C1(CCCCC1)Cc1ccccc1-2`: 960 nM; for `Cc1nc(C)c(-c2ccc(Oc3ccc(OC(F)(F)F)cc3)cc2)c(OC(=O)c2ccccc2)c1Cl`: 180 nM. Next, `COc1ccc2nc(C)cc(NCc3ccc4ccccc4c3)c2c1`: 470 nM; `COc1ccc2nccc(N3CCN(CCNCc4ccc5c(n4)NC(=O)CO5)CC3)c2c1`: 1160 nM. With `O=C(/C=C/c1ccccc1F)NC1CCC(CCN2CCc3ccc(-c4cccnc4)cc3CC2)CC1` (stereo not given), the IC50 was found to be 900 nM. The same measure for `O=C(NC1CC1)c1ccc(N2CCN(Cc3ccc(Cl)cc3)CC2)nc1`: 1340 nM. In the case of `COc1ccccc1-n1ccnc1SCC(=O)Nc1cc(C(F)(F)F)ccc1Cl`, the IC50 stood at 10 nM.

`COc1ccc(-c2cccc(NC(=O)c3ccc(Cl)cc3)c2)cc1CN1CCC(O)CC1` had an IC50 of 790 nM. Next, `Fc1ccc2nc(-c3ccc(-c4ccc(CN5CCN(CCN6CCOCC6)CC5)cc4)s3)[nH]c2c1`: 150 nM; `O=C(Nc1cccc(-c2nn3ccccc3c2-c2ccnc(Nc3cccc(C(F)(F)F)c3)n2)c1)c1c(F)cccc1F`: 630 nM; `CC1CC(C)CN(S(=O)(=O)c2cc(C(=O)Nc3cccc([N+](=O)[O-])c3)ccc2Br)C1` (stereo not given): 900 nM. Next, `CCC(C(=O)Nc1cc(=O)[nH]c2nc(-c3ccco3)nn12)c1ccccc1` (stereo not given): 840 nM; `O=C(/C=C/c1cc(C(F)(F)F)ccc1F)N1CCC(CN2CCC(c3c[nH]c4ccccc34)CC2)CC1`: 990 nM; `Nc1ncc(-c2ccsc2)c2ccc(-c3cnc[nH]3)cc12`: 570 nM. As to `O=C(/C=C/c1ccc(Cl)c(Cl)c1)NCCCCCCN1CCCN(C(=O)Nc2ccc(C(F)(F)F)cc2)CC1`, the IC50 amounted to 580 nM. This IC50 and that of the compound before are within 1.5-fold of each other. The same measure for `O=C(Nc1ccc(Cl)cc1)N[C@H]1CCN(CCCCCNC(=O)[C@@H]2C[C@H]2c2ccc(Cl)c(Cl)c2)C1`: 870 nM; for `O=C(Nc1ccc(OC2CCN(Cc3ccccc3)CC2)c(Cl)c1)c1ccc(F)cc1`: 800 nM. Next, `O=C(COC(=O)c1cccc(S(=O)(=O)N2CCc3ccccc32)c1)NNC(=O)c1cccs1`: 1250 nM.
